Results published in patent publication US20250051409A1, “MODULATORS OF PHOSPHATIDYLSERlNE DECARBOXYLASE AND USE THEREOF” (THE NATIONAL INSTITUTE FOR BIOTECHNOLOGY IN THE NEGEV LTD., priority 2021, published 2025).
Square brackets hold non-standard residues; d marks the D form. Peptide text beside a SMILES is read from it. Dmt = Cc1cc(O)cc(C)c1C[C@H](N)C(=O)O; Orn = NCCC[C@H](N)C(=O)O

Each molecule was assayed on A549 lung cancer cell. Settings: 24 h.
Assay type: cell-based, human
Description: (B) Inhibition of PSD activity by the 2F3 (●) or 1C11 (◯) peptide. PSD activity was measured using the DSB-3 method. (C-E) Cell proliferation inhibition following incubation of A549 cells with the indicated mitochondria- or nuclear-targeted peptides for 24 h in a serum-free medium, and cell proliferation was assayed using the SRB method. Results are the means±SEM (n=3). (F) A549 cells were incubated for 90 min with 5 μM of the mitochondria- or nuclear targeted FITC-labelled peptides, immunostained with anti-SMAC antibodies and with DAPI and visualized by confocal microscope for subcellular localization. Arrows indicates nuclear (n=3). Scale bars represent 20
(A) A549 cells were incubated with the indicated concentration of 1C11-HTRA2-derived peptide targeted to the mitochondrion with the targeting sequence added to the N-terminus (N-Ter) or the C-terminus (C-Ter). (B) Mitochondrion targeted 1C11-HTRA2-derived peptide was modified by replacing the three amino acids in the C or the N-terminus of the peptide, or all amino acids in the peptide with the D-confirmation of the amino acid (underlined amino acids)). Following 24 h incubation in a serum-free medium, cell proliferation was assayed using the SRB method. (C) The concentration required for 50% inhibition of cell proliferation (IC50) is presented. Results are the means±SEM (n=3).
A549 (human lung adenocarcinoma epithelial cell), HEK-293T (human embryonic kidney), H1563/CRL-5875 (non-small cell lung cancer adenocarcinoma), H-358 (bronchioalveolar carcinoma), HaCaT (spontaneously transformed aneuploid immortal human skin keratinocyte), and WI-38 (fibroblast-like fetal lung cell) cell lines were purchased from the American Type Culture Collection (ATCC) (Manassas, VA), and were maintained as per ATCC instructions. Cells were maintained in ATCC recommended medium at 37° C. in an incubator with 5% CO2. Cell lines were routinely tested for Mycoplasma contamination. For SMAC overexpression, cells were seeded (200,000 cells/well) on 6-well culture plates and allowed to adhere overnight. These adhered cells were transfected with PVMV3.1-SMAC or empty vector using the JetPRIME transfection reagent (Illkirch, France), according to the manufacturers' instructions. Medium was changed 6 h post transfection, and cells were harvested 48 h post transfection.
Cells were seeded in 96-well cell culture plates (8,000/well) and allowed to grow for 48 h. After washing with PBS, cells were fixed with 10% trichloroacetic acid, and stained with SRB for 20 min. Excess SRB were removed, and cells were washed with 1% acetic acid. SRB extraction was done using 100 mM Tris-base, and absorbance at 510 nm was determined using an Infinite M1000 plate reader (Tecan, Mannedorf, Switzerland).

`Cc1cc(O)cc(C)c1C[C@H](NC(=O)[C@@H](CCCNC(=N)N)NC(=O)[C@H](CC(C)C)NC(=O)[C@H](CCCNC(=N)N)NC(=O)[C@H](C)NC(=O)[C@H](Cc1c[nH]c2ccccc12)NC(=O)[C@H](CC(C)C)NC(=O)[C@H](CO)NC(=O)[C@@H]1CCCN1C(=O)[C@@H](NC(=O)CNC(=O)[C@H](Cc1ccc(O)cc1)NC(=O)[C@@H](NC(=O)[C@@H](NC(=O)[C@H](CCCNC(=N)N)NC(=O)[C@H](C)NC(=O)[C@H](CCCNC(=N)N)NC(=O)[C@@H]1CCCN1C(=O)[C@H](CC(=O)O)NC(=O)[C@H](CO)NC(=O)[C@@H](NC(=O)CNC(=O)[C@H](CO)NC(=O)[C@@H](NC(=O)[C@H](CC(C)C)NC(=O)[C@H](CC(C)C)NC(=O)[C@H](C)N)[C@@H](C)O)[C@@H](C)O)C(C)C)[C@@H](C)O)[C@@H](C)O)C(=O)N[C@@H](CCCN)C(=O)N[C@@H](Cc1ccccc1)C(N)=O` [1C11-D-Arg-Dmt-Orn-Phe] (H-ALLTSGTSDPRARVTYGTPSLWARL[dR][Dmt][Orn]F-NH2; N-terminus and C-terminus assumed) and `CC(C)C[C@H](NC(=O)[C@H](C)N)C(=O)N[C@@H](CC(C)C)C(=O)N[C@H](C(=O)N[C@@H](CO)C(=O)NCC(=O)N[C@H](C(=O)N[C@@H](CO)C(=O)N[C@@H](CC(=O)O)C(=O)N1CCC[C@H]1C(=O)N[C@@H](CCCNC(=N)N)C(=O)N[C@@H](C)C(=O)N[C@@H](CCCNC(=N)N)C(=O)N[C@H](C(=O)N[C@H](C(=O)N[C@@H](Cc1ccc(O)cc1)C(=O)NCC(=O)N[C@H](C(=O)N1CCC[C@H]1C(=O)N[C@@H](CO)C(=O)N[C@@H](CC(C)C)C(=O)N[C@@H](Cc1c[nH]c2ccccc12)C(=O)N[C@@H](C)C(=O)N[C@@H](CCCNC(=N)N)C(=O)N[C@@H](CC(C)C)C(=O)N[C@@H](CCCNC(=N)N)C(=O)N[C@H](CCCNC(=N)N)C(=O)N[C@@H](CCCNC(=N)N)C(=O)N[C@@H](CCCCN)C(=O)O)[C@@H](C)O)[C@@H](C)O)C(C)C)[C@@H](C)O)[C@@H](C)O` [1C11-R-{D-Arg}-RK] (H-ALLTSGTSDPRARVTYGTPSLWARLR[dR]RK-OH; N-terminus and C-terminus assumed) are within error of each other in IC50: 30.3 ± 5.5 µM for the first, 30 ± 3.8 µM for the second.

First: CC[C@H](C)[C@H](NC(=O)[C@@H](NC(=O)[C@H](CC(N)=O)NC(=O)[C@H](C)NC(=O)[C@H](CCCCN)NC(=O)[C@H](CC(C)C)NC(=O)[C@H](CC(C)C)NC(=O)[C@H](CC(N)=O)NC(=O)[C@H](CC(=O)O)NC(=O)[C@H](CC(C)C)NC(=O)[C@@H](NC(=O)[C@@H]1CCCN1C(=O)[C@H](CC(C)C)NC(=O)[C@@H](NC(=O)[C@H](CS)NC(=O)[C@@H](NC(=O)[C@H](CC(C)C)NC(=O)[C@H](CCC(N)=O)NC(=O)[C@H](CCC(N)=O)NC(=O)[C@@H](N)Cc1ccccc1)[C@@H](C)O)C(C)C)[C@@H](C)CC)C(C)C)C(=O)N[C@@H](CC(N)=O)C(=O)N[C@@H](CCCCN)C(=O)N[C@@H](CCC(N)=O)C(=O)N[C@@H](CCC(=O)O)C(=O)N[C@@H](Cc1c[nH]cn1)C(=O)N[C@H](CCCNC(=N)N)C(=O)N[C@@H](Cc1c(C)cc(O)cc1C)C(=O)N[C@@H](CCCN)C(=O)N[C@@H](Cc1ccccc1)C(N)=O [1E14-D-Arg-Dmt-Orn-Phe] (H-FQQLTCVLPILDNLLKANVINKQEH[dR][Dmt][Orn]F-NH2; N-terminus and C-terminus assumed)
Second: Cc1cc(O)cc(C)c1C[C@H](NC(=O)[C@@H](CCCNC(=N)N)NC(=O)[C@H](CCC(N)=O)NC(=O)[C@H](CCC(N)=O)NC(=O)[C@H](CO)NC(=O)[C@H](CC(C)C)NC(=O)[C@H](Cc1ccccc1)NC(=O)[C@H](CC(=O)O)NC(=O)[C@H](Cc1ccccc1)NC(=O)[C@H](C)NC(=O)[C@H](CC(C)C)NC(=O)[C@H](CC(=O)O)NC(=O)[C@H](CO)NC(=O)[C@H](CO)NC(=O)[C@H](Cc1c[nH]cn1)NC(=O)[C@H](CC(=O)O)NC(=O)[C@@H](NC(=O)CNC(=O)[C@H](CCC(N)=O)NC(=O)[C@H](Cc1ccccc1)NC(=O)[C@H](C)NC(=O)[C@H](CCCNC(=N)N)NC(=O)[C@H](CO)NC(=O)[C@H](CO)NC(=O)[C@H](CCC(N)=O)NC(=O)[C@H](CC(N)=O)NC(=O)[C@@H]1CCCN1)[C@@H](C)O)C(=O)N[C@@H](CCCN)C(=O)N[C@@H](Cc1ccccc1)C(N)=O [2I8-(D-Arg)-Dmt-Orn-Phe-NH2] (H-PNQSSRAFQGTDHSSDLAFDFLSQQ[dR][Dmt][Orn]F-NH2; N-terminus assumed)
The IC50 of the first is higher: greater than 100 µM for the first, 30.2 ± 3.6 µM for the second. The second is the more potent here.

Going from `CC[C@H](C)[C@H](NC(=O)[C@@H]1CCCN1C(=O)[C@H](CO)NC(=O)[C@H](CO)NC(=O)[C@@H](NC(=O)[C@H](CO)NC(=O)[C@H](CC(C)C)NC(=O)[C@H](C)N)[C@@H](C)O)C(=O)N1CCC[C@H]1C(=O)N[C@@H](CO)C(=O)N[C@H](C(=O)N1CCC[C@H]1C(=O)N[C@@H](CCC(N)=O)C(=O)N[C@@H](CO)C(=O)N[C@@H](CCC(N)=O)C(=O)N[C@@H](C)C(=O)N[C@@H](CCC(N)=O)C(=O)N1CCC[C@H]1C(=O)N[C@@H](CCC(N)=O)C(=O)N[C@H](C(=O)NCC(=O)N[C@@H](CO)C(=O)NCC(=O)N[C@@H](C)C(=O)N[C@@H](CO)C(=O)N[C@H](CCCNC(=N)N)C(=O)N[C@@H](Cc1c(C)cc(O)cc1C)C(=O)N[C@@H](CCCN)C(=O)N[C@@H](Cc1ccccc1)C(N)=O)[C@@H](C)O)C(C)C` [2F3-D-Arg-Dmt-Orn-Phe] (H-ALSTSSPIPSVPQSQAQPQTGSGAS[dR][Dmt][Orn]F-NH2; N-terminus and C-terminus assumed) to `CC[C@H](C)[C@H](NC(=O)[C@@H]1CCCN1C(=O)[C@H](CO)NC(=O)[C@H](CO)NC(=O)[C@@H](NC(=O)[C@H](CO)NC(=O)[C@H](CC(C)C)NC(=O)[C@H](C)N)[C@@H](C)O)C(=O)N1CCC[C@H]1C(=O)N[C@@H](CO)C(=O)N[C@H](C(=O)N1CCC[C@H]1C(=O)N[C@@H](CCC(N)=O)C(=O)N[C@@H](CO)C(=O)N[C@@H](CCC(N)=O)C(=O)N[C@@H](C)C(=O)N[C@@H](CCC(N)=O)C(=O)N1CCC[C@H]1C(=O)N[C@@H](CCC(N)=O)C(=O)N[C@H](C(=O)NCC(=O)N[C@@H](CO)C(=O)NCC(=O)N[C@@H](C)C(=O)N[C@@H](CO)C(=O)N[C@@H](CCCNC(=N)N)C(=O)N[C@H](CCCNC(=N)N)C(=O)N[C@@H](CCCNC(=N)N)C(=O)N[C@@H](CCCCN)C(=O)O)[C@@H](C)O)C(C)C` [2F3-R-{D-Arg}-RK] (H-ALSTSSPIPSVPQSQAQPQTGSGASR[dR]RK-OH; N-terminus and C-terminus assumed), the IC50 rises from 19.6 ± 0.4 µM to 29.6 ± 0.6 µM (1.5-fold).

`CC(C)C[C@H](NC(=O)[C@H](CC(=O)O)NC(=O)[C@H](CO)NC(=O)[C@H](CO)NC(=O)[C@H](Cc1c[nH]cn1)NC(=O)[C@H](CC(=O)O)NC(=O)[C@@H](NC(=O)CNC(=O)[C@H](CCC(N)=O)NC(=O)[C@H](Cc1ccccc1)NC(=O)[C@H](C)NC(=O)[C@H](CCCNC(=N)N)NC(=O)[C@H](CO)NC(=O)[C@H](CO)NC(=O)[C@H](CCC(N)=O)NC(=O)[C@H](CC(N)=O)NC(=O)[C@@H]1CCCN1)[C@@H](C)O)C(=O)N[C@@H](C)C(=O)N[C@@H](Cc1ccccc1)C(=O)N[C@@H](CC(=O)O)C(=O)N[C@@H](Cc1ccccc1)C(=O)N[C@@H](CC(C)C)C(=O)N[C@@H](CO)C(=O)N[C@@H](CCC(N)=O)C(=O)N[C@@H](CCC(N)=O)C(=O)N[C@@H](CCCNC(=N)N)C(=O)N[C@H](CCCNC(=N)N)C(=O)N[C@@H](CCCNC(=N)N)C(=O)N[C@@H](CCCCN)C(=O)O` [2I8-R-{D-Arg}-RK] (H-PNQSSRAFQGTDHSSDLAFDFLSQQR[dR]RK-OH; N-terminus and C-terminus assumed) was tested, and the IC50 was 19.7 ± 4.3 µM.
